Values quoted from earlier work in PubChem BioAssay AID1259409 (Chemical Carcinogenesis Research Information System (CCRIS), 2018).

Tested on: rodent chemically induced tumor inhibition, incidence and multiplicity
Experiment: CCRIS tumor inhibitor studies

SMILES | tumour outcome (control, treated, inhibition, significance) (Carcinogen: 7,12-DIMETHYLBENZ[A]ANTHRACENE, 57-97-6, Dose [Inhibitor]: 0, 0.086 UMOL 2/WK BEGINNING 1 WK POST CARCINOGEN DOSE AND CONTINUING FOR DURATION OF STUDY (STUDY DURATION: 15 WK), Route [Inhibitor]: DERMAL, Species: MOUSE, Strain/Sex: SENCAR/FEMALE, Target Tissue: Type of Lesion: SKIN: PAPILLOMA, Dose [Carcinogen]: 10 NMOL ONCE, Promoter: 12-O-TETRADECANOYLPHORBOL-13-ACETATE, 16561-29-8) | tumour outcome (control, treated, inhibition, significance) (Carcinogen: 7,12-DIMETHYLBENZ[A]ANTHRACENE, 57-97-6, Dose [Inhibitor]: 0, 0.342 UMOL 2/WK BEGINNING 1 WK POST CARCINOGEN DOSE AND CONTINUING FOR DURATION OF STUDY (STUDY DURATION: 15 WK), Route [Inhibitor]: DERMAL, Species: MOUSE, Strain/Sex: SENCAR/FEMALE, Target Tissue: Type of Lesion: SKIN: PAPILLOMA, Dose [Carcinogen]: 10 NMOL ONCE, Promoter: 12-O-TETRADECANOYLPHORBOL-13-ACETATE, 16561-29-8) | tumour outcome (control, treated, inhibition, significance) (Carcinogen: 7,12-DIMETHYLBENZ[A]ANTHRACENE, 57-97-6, Dose [Inhibitor]: 0, 0.856 UMOL 2/WK BEGINNING 1 WK POST CARCINOGEN DOSE AND CONTINUING FOR DURATION OF STUDY (STUDY DURATION: 15 WK), Route [Inhibitor]: DERMAL, Species: MOUSE, Strain/Sex: SENCAR/FEMALE, Target Tissue: Type of Lesion: SKIN: PAPILLOMA, Dose [Carcinogen]: 10 NMOL ONCE, Promoter: 12-O-TETRADECANOYLPHORBOL-13-ACETATE, 16561-29-8) | tumour outcome (control, treated, inhibition, significance) (Carcinogen: 7,12-DIMETHYLBENZ[A]ANTHRACENE, 57-97-6, Dose [Inhibitor]: 0, 10 MG A WK IN DRINKING WATER BEGINNING 1 WK POST CARCINOGEN DOSE AND CONTINUING FOR DURATION OF STUDY (STUDY DURATION, Route [Inhibitor]: ORAL, Species: MOUSE, Strain/Sex: SENCAR/MALE, Target Tissue: Type of Lesion: SKIN: PAPILLOMA, Dose [Carcinogen]: 100 NMOL IN 200 µL ACETONE ONCE, Promoter: 12-O-TETRADECANOYLPHORBOL-13-ACETATE, 16561-29-8) | tumour outcome (control, treated, inhibition, significance) (Carcinogen: 1,2-DIMETHYLHYDRAZINE, 540-73-8, Dose [Inhibitor]: 0, 1% IN DIET BEGINNING 1 WK POST LAST CARCINOGEN DOSE AND CONTINUING FOR 36 WK (STUDY DURATION: 40 WK), Route [Inhibitor]: ORAL, Species: RAT, Strain/Sex: F344/MALE, Target Tissue: Type of Lesion: COLON: ADENOMA, Dose [Carcinogen]: 20 MG/KG 1/WK FOR 4 WK, Promoter: NONE USED) | tumour outcome (control, treated, inhibition, significance) (Carcinogen: 1,2-DIMETHYLHYDRAZINE, 540-73-8, Dose [Inhibitor]: 0, 1% IN DIET BEGINNING 1 WK POST LAST CARCINOGEN DOSE AND CONTINUING FOR 36 WK (STUDY DURATION: 40 WK), Route [Inhibitor]: ORAL, Species: RAT, Strain/Sex: F344/MALE, Target Tissue: Type of Lesion: COLON: CARCINOMA, Dose [Carcinogen]: 20 MG/KG 1/WK FOR 4 WK, Promoter: NONE USED) | tumour outcome (control, treated, inhibition, significance) (Carcinogen: 7,12-DIMETHYLBENZ(A)ANTHRACENE, 57-97-6, Dose [Inhibitor]: 0.3% IN HIGH SATURATED FAT DIET (STUDY DURATION: 32 WK), Route [Inhibitor]: ORAL, Species: RAT, Strain/Sex: SPRAGUE-DAWLEY/FEMALE, Target Tissue: Type of Lesion: MAMMARY GLAND: PARENCHYMAL CARCINOMA, Dose [Carcinogen]: 10 MG IN 1 ML CORN OIL ONCE AT 50 D OF AGE, Promoter: NONE USED) | tumour outcome (control, treated, inhibition, significance) (Carcinogen: 7,12-DIMETHYLBENZ[A]ANTHRACENE, 57-97-6, Dose [Inhibitor]: 0, 20 UMOL IN 0.4 ML ACETONE 20 MIN PRIOR TO EACH PROMOTER DOSE (STUDY DURATION: 47 WK), Route [Inhibitor]: DERMAL, Species: MOUSE, Strain/Sex: CF-1/FEMALE, Target Tissue: Type of Lesion: SKIN: CARCINOMA, Dose [Carcinogen]: 100 NMOL IN 0.2 ML ACETONE ONCE) | tumour outcome (control, treated, inhibition, significance) (Carcinogen: 7,12-DIMETHYLBENZ[A]ANTHRACENE, 57-97-6, Dose [Inhibitor]: 0, 20 UMOL IN 0.4 ML ACETONE 20 MIN PRIOR TO EACH PROMOTER DOSE (STUDY DURATION: 47 WK), Route [Inhibitor]: DERMAL, Species: MOUSE, Strain/Sex: CF-1/FEMALE, Target Tissue: Type of Lesion: SKIN: PAPILLOMA, Dose [Carcinogen]: 100 NMOL IN 0.2 ML ACETONE ONCE) | tumour outcome (control, treated, inhibition, significance) (Carcinogen: 7,12-DIMETHYLBENZ[A]ANTHRACENE, 57-97-6, Dose [Inhibitor]: 0.3% IN HIGH POLYUNSATURATED FAT DIET (STUDY DURATION: 32 WK), Route [Inhibitor]: ORAL, Species: RAT, Strain/Sex: SPRAGUE-DAWLEY/FEMALE, Target Tissue: Type of Lesion: MAMMARY GLAND: PARENCHYMAL CARCINOMA, Dose [Carcinogen]: 10 MG IN 1 ML CORN OIL ONCE AT 50 D OF AGE, 1X, Promoter: NONE USED) | tumour outcome (control, treated, inhibition, significance) (Carcinogen: 7,12-DIMETHYLBENZ[A]ANTHRACENE, 57-97-6, Dose [Inhibitor]: 0.3% IN HIGH POLYUNSATURATED FAT DIET DAILY STARTING 29 D BEFORE CARCINOGEN TREATMENT AND CONTINUING FOR THE DURATION OF, Route [Inhibitor]: ORAL, Species: RAT, Strain/Sex: SPRAGUE-DAWLEY/FEMALE, Target Tissue: Type of Lesion: MAMMARY GLAND: ADENOCARCINOMA, Dose [Carcinogen]: 10 MG IN 1 ML STRIPPED CORN OIL ONCE AT AGE 50 D, Promoter: NONE USED) | tumour outcome (control, treated, inhibition, significance) (Carcinogen: 7,12-DIMETHYLBENZ[A]ANTHRACENE, 57-97-6, Dose [Inhibitor]: 0.3% IN HIGH SATURATED FAT DIET DAILY STARTING 29 D BEFORE CARCINOGEN TREATMENT AND CONTINUING FOR THE DURATION OF THE S, Route [Inhibitor]: ORAL, Species: RAT, Strain/Sex: SPRAGUE-DAWLEY/FEMALE, Target Tissue: Type of Lesion: MAMMARY GLAND: ADENOCARCINOMA, Dose [Carcinogen]: 10 MG IN 1 ML STRIPPED CORN OIL ONCE AT AGE 50 D, Promoter: NONE USED) | tumour outcome (control, treated, inhibition, significance) (Carcinogen: 7,12-DIMETHYLBENZ[A]ANTHRACENE, 57-97-6, Dose [Inhibitor]: 0.3% IN LOW FAT DIET (STUDY DURATION: 32 WK), Route [Inhibitor]: ORAL, Species: RAT, Strain/Sex: SPRAGUE-DAWLEY/FEMALE, Target Tissue: Type of Lesion: MAMMARY GLAND: PARENCHYMAL CARCINOMA, Dose [Carcinogen]: 10 MG IN 1 ML CORN OIL ONCE AT 50 D OF AGE, Promoter: NONE USED) | tumour outcome (control, treated, inhibition, significance) (Carcinogen: 7,12-DIMETHYLBENZ[A]ANTHRACENE, 57-97-6, Dose [Inhibitor]: 0.3% IN LOW FAT DIET DAILY STARTING 29 D BEFORE CARCINOGEN TREATMENT AND CONTINUING FOR THE DURATION OF THE STUDY (STUDY, Route [Inhibitor]: ORAL, Species: RAT, Strain/Sex: SPRAGUE-DAWLEY/FEMALE, Target Tissue: Type of Lesion: MAMMARY GLAND: ADENOCARCINOMA, Dose [Carcinogen]: 10 MG IN 1 ML STRIPPED CORN OIL ONCE AT AGE 50 D, Promoter: NONE USED) | tumour outcome (control, treated, inhibition, significance) (Carcinogen: 7,12-DIMETHYLBENZ[A]ANTHRACENE, 57-97-6, Dose [Inhibitor]: 1.0% IN POWDERED DIET BEGINNING 1 WK POST CARCINOGEN DOSE FOR 51 WK (STUDY DURATION: 52 WK), Route [Inhibitor]: ORAL, Species: RAT, Strain/Sex: SPRAGUE-DAWLEY/FEMALE, Target Tissue: Type of Lesion: EAR DUCT: BENIGN TUMOR, Dose [Carcinogen]: 2.5 MG/100 G BW IN 0.5 ML SESAME OIL ONCE, Promoter: NONE USED) | tumour outcome (control, treated, inhibition, significance) (Carcinogen: 7,12-DIMETHYLBENZ[A]ANTHRACENE, 57-97-6, Dose [Inhibitor]: 1.0% IN POWDERED DIET BEGINNING 1 WK POST CARCINOGEN DOSE FOR 51 WK (STUDY DURATION: 52 WK), Route [Inhibitor]: ORAL, Species: RAT, Strain/Sex: SPRAGUE-DAWLEY/FEMALE, Target Tissue: Type of Lesion: MAMMARY GLAND: CARCINOMA, Dose [Carcinogen]: 2.5 MG/100 G BW IN 0.5 ML SESAME OIL ONCE, Promoter: NONE USED) | tumour outcome (control, treated, inhibition, significance) (Carcinogen: 7,12-DIMETHYLBENZ[A]ANTHRACENE, 57-97-6, Dose [Inhibitor]: 1.0% IN POWDERED DIET BEGINNING 1 WK POST CARCINOGEN DOSE FOR 51 WK (STUDY DURATION: 52 WK), Route [Inhibitor]: ORAL, Species: RAT, Strain/Sex: SPRAGUE-DAWLEY/FEMALE, Target Tissue: Type of Lesion: MAMMARY GLAND: FIBROADENOMA, Dose [Carcinogen]: 2.5 MG/100 G BW IN 0.5 ML SESAME OIL ONCE, Promoter: NONE USED)
CN(C)CCOC(c1ccccc1)c1ccccc1 | 97%, 75%, 23%, not calculated | 97%, 80%, 18%, not calculated | 97%, 75%, 23%, not calculated | 95%, 98%, -3%, not calculated |  |  |  |  |  |  |  |  |  |  |  |  | 
CCCOC(=O)c1cc(O)c(O)c(O)c1 |  |  |  |  | 1/20 (5%), 5/20 (25%), -400%, not calculated | 6/20 (30%), 6/20 (30%), 0% | 20/30 (67%), 8/30 (27%), 60%, not calculated | 67%, 8%, 88%, not calculated | 94%, 66%, 30%, not calculated | 30/30 (100%), 23/30 (77%), 23%, not calculated | 100%, 70%, 30%, not calculated | 65%, 35%, 46%, not calculated | 7/30 (23%), 4/30 (13%), 43%, not calculated | 35%, 15%, 57%, not calculated | 7/19 (37%), 3/20 (15%), 59%, not calculated | 6/19 (32%), 1/20 (5%), 84%, p<0.05 | 15/19 (79%), 4/20 (20%), 75%, p<0.001
